Measured values from US20130298921A1, “INHALER FOR SMOKING CESSATION” (Rock Creek Pharmaceuticals, Inc., priority 2011, published 2013).
pEC50: −log10 of the molar value. Where two headings read alike, the source gives them in different places.

Legend:
[1] = test system: nicotine self-administration in rhesus monkeys; assay: nicotine self-administration in nonhuman primate model (second-order schedule, nicotine- and food-maintained responding); format: in vivo, rhesus monkeys (Macaca Mulatta); conditions: for food-maintained responding (change with increasing anatabine doses): anatabine 0.18-3.2 mg/kg IM; for nicotine self-administration: single doses of anatabine 0.18-3.2 mg/kg IM, nicotine training dose 0.01 mg/kg/inj (base)
Text: Food was available during three 1-hour sessions each day (7 AM, 3 PM and 7 PM).
Food pellets were limited to 25 per session or 100 per day.
Nicotine doses are expressed as the base.

[2] = test system: nicotine self-administration by rats; assay: nicotine self-administration by rats; format: in vivo; conditions: anatabine 1.8 and 3.2 mg/kg IP; peak reinforcing nicotine doses 0.003 and 0.01 mg/kg/inj; P<0.05-0.001; FIG. 6
[3] = biological target: T1, α4/β2 nAChR channel (Homo sapiens, UniProt P17787+P43681); assay: Fluo-8 calcium FLIPR assay, cloned nAChR channels in mammalian cells; format: cell-based
T1 construct: expressed in transfected cells
T1 sequence (P43681 29-627 limits assumed): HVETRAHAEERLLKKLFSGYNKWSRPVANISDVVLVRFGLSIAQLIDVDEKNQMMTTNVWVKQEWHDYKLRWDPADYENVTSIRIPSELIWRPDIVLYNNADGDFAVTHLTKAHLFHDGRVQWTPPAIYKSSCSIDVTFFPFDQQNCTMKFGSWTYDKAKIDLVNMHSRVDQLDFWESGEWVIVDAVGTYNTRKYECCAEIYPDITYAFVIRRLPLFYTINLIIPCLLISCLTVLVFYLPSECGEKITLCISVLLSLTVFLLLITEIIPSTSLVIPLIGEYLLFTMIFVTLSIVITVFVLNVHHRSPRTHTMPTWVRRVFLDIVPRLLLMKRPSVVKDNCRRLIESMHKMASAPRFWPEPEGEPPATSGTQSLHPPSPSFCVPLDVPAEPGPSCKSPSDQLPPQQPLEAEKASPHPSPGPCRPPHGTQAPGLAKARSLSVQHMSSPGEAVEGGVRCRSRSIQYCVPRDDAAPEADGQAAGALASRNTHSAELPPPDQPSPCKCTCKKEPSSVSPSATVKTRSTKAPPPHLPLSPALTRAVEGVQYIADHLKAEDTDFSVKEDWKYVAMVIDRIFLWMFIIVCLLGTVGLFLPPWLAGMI
T1 sequence (P17787 26-502): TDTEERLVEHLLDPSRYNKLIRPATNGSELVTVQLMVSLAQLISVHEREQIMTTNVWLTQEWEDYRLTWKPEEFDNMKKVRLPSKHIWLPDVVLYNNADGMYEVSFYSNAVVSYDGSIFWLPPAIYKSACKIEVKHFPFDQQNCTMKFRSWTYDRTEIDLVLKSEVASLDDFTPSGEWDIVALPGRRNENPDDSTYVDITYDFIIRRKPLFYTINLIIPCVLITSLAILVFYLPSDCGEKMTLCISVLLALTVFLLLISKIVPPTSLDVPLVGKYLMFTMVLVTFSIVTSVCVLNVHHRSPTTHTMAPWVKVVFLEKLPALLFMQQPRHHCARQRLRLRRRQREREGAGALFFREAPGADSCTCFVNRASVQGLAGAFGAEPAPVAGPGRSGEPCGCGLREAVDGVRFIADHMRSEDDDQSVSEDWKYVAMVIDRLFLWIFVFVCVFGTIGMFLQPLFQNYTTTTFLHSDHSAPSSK

[4] = biological target: T2, α3/β4 nAChR channel (Homo sapiens, UniProt P30926+P32297); assay: as above; format: cell-based
T2 construct: expressed in transfected cells
T2 sequence (P32297 32-505): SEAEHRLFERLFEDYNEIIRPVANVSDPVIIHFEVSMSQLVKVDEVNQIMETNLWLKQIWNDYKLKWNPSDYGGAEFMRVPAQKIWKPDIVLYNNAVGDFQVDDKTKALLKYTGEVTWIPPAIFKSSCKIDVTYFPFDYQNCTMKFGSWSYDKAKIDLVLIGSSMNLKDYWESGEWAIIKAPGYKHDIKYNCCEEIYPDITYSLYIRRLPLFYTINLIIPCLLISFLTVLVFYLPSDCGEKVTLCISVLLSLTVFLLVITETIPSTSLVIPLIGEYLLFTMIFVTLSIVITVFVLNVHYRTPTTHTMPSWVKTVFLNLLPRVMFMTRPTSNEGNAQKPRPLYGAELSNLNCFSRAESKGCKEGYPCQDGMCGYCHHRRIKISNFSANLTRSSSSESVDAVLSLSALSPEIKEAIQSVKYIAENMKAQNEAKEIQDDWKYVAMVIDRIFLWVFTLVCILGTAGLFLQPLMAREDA
T2 sequence (P30926 22-498): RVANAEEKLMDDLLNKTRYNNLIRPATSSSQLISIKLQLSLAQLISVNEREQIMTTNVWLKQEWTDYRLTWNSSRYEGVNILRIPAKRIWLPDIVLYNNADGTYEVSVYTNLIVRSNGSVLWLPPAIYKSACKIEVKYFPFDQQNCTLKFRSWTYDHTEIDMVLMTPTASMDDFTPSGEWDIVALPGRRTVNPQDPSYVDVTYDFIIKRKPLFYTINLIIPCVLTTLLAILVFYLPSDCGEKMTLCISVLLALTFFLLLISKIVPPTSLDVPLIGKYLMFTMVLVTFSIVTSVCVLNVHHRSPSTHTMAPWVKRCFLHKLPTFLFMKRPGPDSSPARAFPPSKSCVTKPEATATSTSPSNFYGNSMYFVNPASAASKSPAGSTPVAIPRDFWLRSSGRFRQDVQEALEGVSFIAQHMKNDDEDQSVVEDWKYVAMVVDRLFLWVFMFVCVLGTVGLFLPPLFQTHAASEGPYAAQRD

[5] = biological target: T3, α7 nAChR channel (Homo sapiens, UniProt P36544); assay: as above; format: cell-based; conditions: for agonist character / maximum level of activation: agonist assay
T3 construct: expressed in transfected cells
T3 sequence (P36544 23-502): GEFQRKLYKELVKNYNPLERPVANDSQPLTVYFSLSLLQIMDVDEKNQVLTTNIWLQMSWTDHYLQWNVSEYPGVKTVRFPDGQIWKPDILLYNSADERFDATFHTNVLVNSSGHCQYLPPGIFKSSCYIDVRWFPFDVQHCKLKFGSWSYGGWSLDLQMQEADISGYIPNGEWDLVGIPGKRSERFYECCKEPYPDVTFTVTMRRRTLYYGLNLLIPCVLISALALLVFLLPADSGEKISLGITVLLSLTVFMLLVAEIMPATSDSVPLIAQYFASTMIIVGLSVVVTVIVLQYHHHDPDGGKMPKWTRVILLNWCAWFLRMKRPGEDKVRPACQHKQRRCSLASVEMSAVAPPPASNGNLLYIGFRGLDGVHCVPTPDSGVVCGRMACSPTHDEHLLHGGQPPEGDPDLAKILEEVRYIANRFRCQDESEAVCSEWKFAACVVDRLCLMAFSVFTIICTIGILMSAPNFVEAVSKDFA

[6] = test system: rodents trained to self-administer nicotine; assay: reward in rodents trained to self-administer nicotine; format: in vivo
[7] = test system: precipitated nicotine withdrawal; assay: precipitated nicotine withdrawal; format: in vivo, rodents; conditions: anatabine administration
[8] = test system: nicotine self-administration by rats; conditions: anatabine 1.8-5.6 mg/kg, Caine et al., 2013, cited from earlier work
[9] = test system: Frontal cortex (rat frontal homogenates); assay: binding relative to nicotine in rat frontal homogenates; conditions: reference set to 1.0
Text: (§1) This example describes a study conducted on anatabine along with other common nicotinic alkaloids in rat frontal and hippocampal homogenates.

[10] = test system: Hippocampus (rat hippocampal homogenates); assay: binding relative to nicotine in rat hippocampal homogenates; conditions: reference set to 1.0
Text: as §1

[11] = antagonist and positive allosteric modulator modes

C1=CCC(c2cccnc2)NC1 (racemic) [Anatabine, anatabine]
effect on nicotine dose-effect curve ([1]; anatabine 0.32 mg/kg, data for two monkeys): shifts the peak of the dose-effect curve to the right | effect on nicotine dose-effect curve ([1]; anatabine 1.0 mg/kg): flattened the dose-effect curve | food-maintained responding (change with increasing anatabine doses) [1]: no significant effects | food-maintained responding (change with increasing anatabine doses) ([1]; listed as anatabine): not statistically significant | decreases in nicotine-maintained responding versus baseline ([1]; anatabine doses of 1.8 and 3.2 mg/kg IM, P<0.005-0.02): significantly different from baseline | systematic behavioral assessments (sedation or agitation) ([1]; following each treatment session): no evidence of sedation or agitation | nicotine self-administration [1]: dose-dependently reduced | nicotine self-administration ([1]; listed as anatabine): dose-dependently decreased | nicotine-maintained responding [2]: significantly reduced | agonist character ([3]; agonist assay): full agonist | antagonist or PAM effects [3, 11]: no antagonist or PAM effects | pEC50 ([4]; agonist assay): 4.84 | agonist character ([4]; agonist assay): partial agonist | antagonist or PAM effects [4, 11]: no antagonist or PAM effects | agonist character [5]: full, potent agonists | maximum level of activation [5]: also similar (and similar to ACh) | antagonist or PAM effects [5, 11]: no antagonist or PAM effects | rewarding effect [6]: do not find anatabine to be rewarding | reversal of precipitated nicotine withdrawal [7]: does not reverse precipitated nicotine withdrawal | effect on nicotine dose-effect curve [8]: flattened the nicotine dose-effect curve | nicotine-maintained responding ([8]; nicotine 0.003 and 0.01 mg/kg/inj): significantly reduced

CN1CCCC1c1cccnc1 (single isomer, unassigned) [Nicotine, nicotine, reference compound]
food-maintained responding with increasing doses of nicotine ([1]; nicotine 0.001-0.1 mg/kg/inj): did not change | peak of the nicotine dose-effect curve ([1]; nicotine 0.001-0.1 mg/kg/inj, 7 monkeys): 0.0032 mg/kg/inj | Nicotine Binding Constant [9]: 1.0 | Nicotine Binding Constant [10]: 1.0 | agonist character ([4]; agonist assay): full agonist | maximal response of the channel compared with ACh ([4]; agonist assay): approached that of ACh | agonist character [5]: full, potent agonists | maximum level of activation [5]: also similar (and similar to ACh)
